The values below come from patent US20170275270A1, “BENZYL SUBSTITUTED INDAZOLES” (Bayer Pharma Aktiengesellschaft, priority 2014, published 2017).

Experiment [1] addresses T1, catalytic domain of human Bub1 (amino acids 704-1085) (Homo sapiens, UniProt O43683).
T1 construct: catalytic domain of human Bub1 (amino acids 704-1085); His6 (N); made in house; host or cells: Hi5 insect cells
Put plainly: Bub1 kinase assay (TR-FRET). It counts as biochemical. An outline of the steps: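 TR-FRET read-out (Eu-anti-mouse IgG/anti-phosphoserine antibody to streptavidin-XL665 on biotinylated peptide) after EDTA stop and 1 h complex formation at 22° C. Kinase reaction ran 60 min at 22° C with 1:3.4 serial dilutions from 2 mM DMSO stocks. IC50 from 4-parameter logistic fit of normalized inhibition.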
(TR-FRET usually uses a lanthanide donor and a delayed reading to cut background.)

Experiment [2] relates to HeLa. Put plainly: Proliferation assay (HeLa cell line).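 Also: crystal violet staining of cell number, scaled between a plate stained before dosing (0%) and cells left untreated (100%), compounds tested at 0.001-10 µM, IC50 via 4-parameter fit.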 As to conditions: Homo sapiens, 96 h, read-out: Biological Assay 2: Proliferation assay (HeLa cell line) median IC50.
The test system of experiment [3] is HeLa human cervical tumor cells. The experiment can be described thus: Proliferation assay (HeLa+Paclitaxel).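 Also: compounds at 0.001-10 µM added 4 h after paclitaxel, 92 h exposure, absorbance normalized to zero-point plate (0%) and untreated cells (100%), IC50 from 4-parameter fit.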 As to conditions: read-out: Biological Assay 3: HeLa + Paclitaxel IC50, 3 nM paclitaxel, crystal violet.
Where [4] appears, read: Biological Assay 1: Bub1 kinase assay median IC50, 10 μM ATP.
The mark [5] stands for this setting: 10 μM ATP, read-out: Biological Assay 1: Bub1 kinase assay median IC50.

SMILES strings stand for the structures. Read-outs that look alike come from different tables or passages of the source. Where only a bound is given, the exact number is not on record here.

T1 sequence (O43683 704-1085): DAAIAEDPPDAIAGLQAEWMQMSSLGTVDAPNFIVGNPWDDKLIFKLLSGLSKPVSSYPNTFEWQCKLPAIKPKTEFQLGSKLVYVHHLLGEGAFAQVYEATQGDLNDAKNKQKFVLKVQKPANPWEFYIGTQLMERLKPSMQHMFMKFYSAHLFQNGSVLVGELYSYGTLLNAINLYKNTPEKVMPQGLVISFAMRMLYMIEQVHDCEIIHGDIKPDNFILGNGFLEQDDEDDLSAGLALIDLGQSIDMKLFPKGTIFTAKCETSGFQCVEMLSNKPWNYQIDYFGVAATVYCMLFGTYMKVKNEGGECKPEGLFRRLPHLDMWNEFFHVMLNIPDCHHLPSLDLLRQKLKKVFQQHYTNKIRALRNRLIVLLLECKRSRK

For `COCCOc1cc(F)c(Cn2nc(-c3nc(CN4CCOCC4)cc(Nc4ccncc4C)n3)c3ccccc32)c(F)c1` [Example 2-12-41, 2-{1-[2,6-difluoro-4-(2-methoxyethoxy)benzyl]-1H-indazol-3-yl}-N-(3-methylpyridin-4-yl)-6-(morpholin-4-ylmethyl)pyrimidin-4-amine], the IC50 in experiment [1] (setting [4]) was 0.0088 µM; in experiment [2] it was 3.5 µM; in experiment [3], 0.12 µM.
Turning to `CCOc1cc(F)c(Cn2nc(-c3ncc(C4CN(CC(F)(F)F)C4)c(Nc4ccncc4)n3)c3ccccc32)c(F)c1` [Example 2-11-2, 2-[1-(4-ethoxy-2,6-difluorobenzyl)-1H-indazol-3-yl]-N-(pyridin-4-yl)-5-[1-(2,2,2-trifluoroeth-yl)azetidin-3-yl]pyrimidin-4-amine], the results for the IC50 in experiment [1] (setting [4]), in experiment [2] and in experiment [3] were 0.02 µM, 3.4 µM and 0.12 µM, respectively.
The matching figures for `COCCOc1cc(F)c(Cn2nc(-c3ncc(C4CCN(CC5CC5)CC4)c(Nc4ccnc(C)n4)n3)c3ccccc32)c(F)c1` [Example 2-20-12, 5-[1-(cyclopropylmethyl)piperidin-4-yl]-2-{1-[2,6-difluoro-4-(2-methoxyethoxy)benzyl]-1H-indazol-3-yl}-N-(2-methylpyrimidin-4-yl)pyrimidin-4-amine]: 0.031 µM, 1.2 µM and 0.068 µM.
`CCOc1cc(F)c(Cn2nc(-c3nc4c(c(Nc5cc(C)nc(C)n5)n3)CCC4)c3ccccc32)c(F)c1` [Example 2-12-27, N-(2,6-dimethylpyrimidin-4-yl)-2-[1-(4-ethoxy-2,6-difluorobenzyl)-1H-indazol-3-yl]-6,7-dihydro-5H-cyclopenta[d]pyrimidin-4-amine]: the IC50 in experiment [1] (setting [4]) is 0.61 µM; in experiment [2], 3.1 µM; in experiment [3], 0.21 µM.
For `CC1(C)CCc2c(nc(-c3nn(Cc4c(F)cc(OCCO)cc4F)c4ccccc34)nc2Nc2ccncc2Cl)C1` [Example 2-6-25, 2-{4-[(3-{4-[(3-chloropyridin-4-yl)amino]-7,7-dimethyl-5,6,7,8-tetrahydroquin-azolin-2-yl}-1H-indazol-1-yl)methyl]-3,5-difluorophenoxy} ethanol] the same measures were 0.048 µM, 7.6 µM and 0.37 µM.
Turning to `CCOc1cc(F)c(Cn2nc(-c3nc(CN4CCOCC4)cc(Nc4cc(O)ncn4)n3)c3ccccc32)c(F)c1` [Example 2-12-45, 6-({2-[1-(4-ethoxy-2,6-difluorobenzyl)-1H-indazol-3-yl]-6-(morpholin-4-ylmethyl)pyrimidin-4-yl}amino)pyrimidin-4-ol], the values for the IC50 in experiment [1] (setting [4]), in experiment [2] and in experiment [3] were 0.76 µM, greater than 10 µM and 0.38 µM, respectively.
For `Cc1cc(Nc2ccnc(C)n2)nc(-c2nn(Cc3c(F)cc(OCCO)cc3F)c3ccccc23)n1` [Example 2-6-27, 2-{3,5-difluoro-4-[(3-{4-methyl-6-[(2-methylpyrimidin-4-yl)amino]pyrimidin-2-yl}-1H-indazol-1-yl)methyl]phenoxy}ethanol] the same measures were 0.043 µM, 5.1 µM and 0.29 µM.
`COc1cnccc1Nc1nc(-c2nn(Cc3c(F)cc(OCCO)cc3F)c3ccccc23)nc(C)c1C` [Example 2-6-31, 2-{3,5-difluoro-4-[(3-{4-[(3-methoxypyridin-4-yl)amino]-5,6-dimethylpyrimidin-2-yl}-1H-indazol-1-yl)methyl]phenoxy}ethanol]: the IC50 in experiment [1] (setting [5]) came to 0.0067 µM; in experiment [2], 4.9 µM; in experiment [3], 0.76 µM.
With `CCOc1cc(F)c(Cn2nc(-c3nc4c(c(Nc5ccnc(NC(C)=O)c5)n3)CC(C)(C)CC4)c3ccccc32)c(F)c1` [Example 2-12-69, N-[4-({2-[1-(4-ethoxy-2,6-difluorobenzyl)-1H-indazol-3-yl]-6,6-dimethyl-5,6,7,8-tetrahydroquinazolin-4-yl}amino)pyridin-2-yl]acetamide], the IC50 in experiment [1] (setting [4]) was determined as 0.0088 µM; in experiment [2] it was 8.5 µM; in experiment [3], 0.17 µM.
With `COCCOc1cc(F)c(Cn2nc(-c3nc(CN4CCOCC4)cc(Nc4ccnnc4)n3)c3ccccc32)c(F)c1` [Example 2-12-39, N-[2-{1-[2,6-difluoro-4-(2-methoxyethoxy)benzyl]-1H-indazol-3-yl}-6-(morpholin-4-ylmethyl)pyrimidin-4-yl]pyridazin-4-amine], the IC50 was 0.026 µM in experiment [1] (setting [4]), greater than 10 µM in experiment [2] and 0.77 µM in experiment [3].
In the case of `CCOc1cc(F)c(Cn2nc(-c3ncc(OCC[S+](C)[O-])c(Nc4ccncc4)n3)c3ccccc32)c(F)c1` (stereo not shown) [Example 3-2-1, 2-[1-(4-ethoxy-2,6-difluorobenzyl)-1H-indazol-3-yl]-5-[2-(methylsulfinyl)ethoxy]-N-(pyridin-4-yl)pyrimidin-4-amine, reference compound], the IC50 in experiment [2] came out at 4.5 µM; in experiment [3], 0.41 µM.
As for `CCOc1cc(F)c(Cn2nc(-c3nc(Nc4ccnc(C)n4)cc(C4CCCO4)n3)c3ccccc32)c(F)c1` (racemic) [Example 2-12-87, 2-[1-(4-ethoxy-2,6-difluorobenzyl)-1H-indazol-3-yl]-N-(2-methylpyrimidin-4-yl)-6-[(2rac)-tetrahydrofuran-2-yl]pyrimidin-4-amine], the IC50 is 0.037 µM in experiment [1] (setting [4]), 9.3 µM in experiment [2] and 1.5 µM in experiment [3].
In the case of `CCOc1cc(F)c(Cn2nc(-c3nc(CN4CCOCC4)cc(Nc4ncncc4C)n3)c3ccccc32)c(F)c1` [Example 2-12-38, 2-[1-(4-ethoxy-2,6-difluorobenzyl)-1H-indazol-3-yl]-N-(5-methylpyrimidin-4-yl)-6-(morpholin-4-ylmethyl)pyrimidin-4-amine], the results for the IC50 in experiment [1] (setting [4]), in experiment [2] and in experiment [3] were 3 µM, 8.8 µM and 0.11 µM, respectively.
Take `COCCOc1cc(F)c(Cn2nc(-c3nc(CN4CCOCC4)cc(Nc4ccncc4OC)n3)c3ccccc32)c(F)c1` [Example 2-12-42, 2-{1-[2,6-difluoro-4-(2-methoxyethoxy)benzyl]-1H-indazol-3-yl}-N-(3-methoxypyridin-4-yl)-6-(morpholin-4-ylmethyl)pyrimidin-4-amine]: the IC50 in experiment [1] (setting [4]) was 0.016 µM; in experiment [2] it was 3.4 µM; in experiment [3], 0.24 µM.
The matching figures for `CCOc1cc(F)c(Cn2nc(-c3nc(Nc4ccncc4OC)cc(-c4ccn(C)n4)n3)c3ccccc32)c(F)c1` [Example 2-12-94, 2-[1-(4-ethoxy-2,6-difluorobenzyl)-1H-indazol-3-yl]-N-(3-methoxypyridin-4-yl)-6-(1-methyl-1H-pyrazol-3-yl)pyrimidin-4-amine]: 0.0097 µM, 3.9 µM and 2.3 µM.
The matching figures for `CCOc1cc(F)c(Cn2nc(-c3nc4c(c(Nc5cc(OC)ncn5)n3)CCC4)c3ccccc32)c(F)c1` [Example 2-12-26, 2-[1-(4-ethoxy-2,6-difluorobenzyl)-1H-indazol-3-yl]-N-(6-methoxypyrimidin-4-yl)-6,7-dihydro-5H-cyclopenta[d]pyrimidin-4-amine]: 0.13 µM, 8 µM and 1 µM.
For the compound `CCOc1cc(F)c(Cn2nc(-c3nc4c(c(Nc5ccnc(S(C)(=O)=O)c5)n3)CCC4)c3ccccc32)c(F)c1` [Example 2-19-6, 2-[1-(4-ethoxy-2,6-difluorobenzyl)-1H-indazol-3-yl]-N-[2-(methylsulfonyl)pyridin-4-yl]-6,7-dihydro-5H-cyclopenta[d]pyrimidin-4-amine], the IC50 in experiment [2] is greater than 10 µM; in experiment [3], 0.48 µM.
Regarding `CCOc1cc(F)c(Cn2nc(-c3nc(C)cc(Nc4ccncc4OC(F)(F)F)n3)c3ccccc32)c(F)c1` [Example 2-12-79, 2-[1-(4-ethoxy-2,6-difluorobenzyl)-1H-indazol-3-yl]-6-methyl-N-[3-(trifluoromethoxy)pyr-idin-4-yl]pyrimidin-4-amine], the IC50 is 0.0056 µM in experiment [1] (setting [5]), greater than 10 µM in experiment [2] and 1.9 µM in experiment [3].
As for `CCOc1cc(F)c(Cn2nc(-c3nc4c(c(Nc5ccncc5)n3)CN(CC)CC4)c3ccccc32)c(F)c1` [Example 2-15-1, 2-[1-(4-ethoxy-2,6-difluorobenzyl)-1H-indazol-3-yl]-6-ethyl-N-(pyridin-4-yl)-5,6,7,8-tetrahydropyrido[4,3-d]pyrimidin-4-amine], the IC50 in experiment [1] (setting [4]) was 0.0086 µM; in experiment [2] it was greater than 10 µM; in experiment [3], 0.069 µM.
For `CCOc1cc(F)c(Cn2nc(-c3nc4c(c(Nc5cc(Cl)ncn5)n3)CCC4)c3ccccc32)c(F)c1` [Example 2-12-32, N-(6-chloropyrimidin-4-yl)-2-[1-(4-ethoxy-2,6-difluorobenzyl)-1H-indazol-3-yl]-6,7-dihydro-5H-cyclopenta[d]pyrimidin-4-amine] the same measures were 0.33 µM, greater than 10 µM and 0.53 µM.
With `COc1cnccc1Nc1cc(C(C)C)nc(-c2nn(Cc3c(F)cc(OCCO)cc3F)c3ccccc23)n1` [Example 2-6-29, 2-{3,5-difluoro-4-[(3-{4-isopropyl-6-[(3-methoxypyridin-4-yl)amino]pyrimidin-2-yl}-1H-indazol-1-yl)methyl]phenoxy}ethanol], the values for the IC50 in experiment [1] (setting [5]), in experiment [2] and in experiment [3] were 0.031 µM, 1.3 µM and 0.21 µM, respectively.
For `COc1cnccc1Nc1cc(C)nc(-c2nn(Cc3c(F)cc(OCCO)cc3F)c3ccccc23)n1` [Example 2-6-33, 2-{3,5-difluoro-4-[(3-{4-[(3-methoxypyridin-4-yl)amino]-6-methylpyrimidin-2-yl}-1H-indazol-1-yl)methyl]phenoxy}ethanol] the same measures were 0.0057 µM, 3.5 µM and 1.8 µM.
